One test deals with CD4+ CCR4+ T cells. Nature of the test: Chemokine stimulated increases in cellular F-actin content. The format is cell-based. To be noted: Homo sapiens, T-cell, 0.5 h; PBMC from normal volunteers; antagonist 30 min at 37° C. before agonist for 15 sec; F-actin content by flow cytometry; read-out: pA2 (converted). The method in brief:
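Human PBMC from citrated volunteer blood, stained for CD4 and CCR4, were pre-incubated with antagonist or vehicle (0.1% DMSO) for 30 min at 37 °C, then stimulated with agonist for 15 s and formaldehyde-fixed. F-actin was stained with phalloidin and read by flow cytometry as CD4+CCR4+ MFI relative to CD4+CCR4− cells.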
In general terms: Flow cytometry measures light scatter and fluorescence of single cells or particles in a stream.

A further test concerns the target T1, CCR4 (Homo sapiens, UniProt P51679).
T1 construct: expressed in transfected cells; host or cells: CHO cell membranes
T1 sequence (P51679 1-360): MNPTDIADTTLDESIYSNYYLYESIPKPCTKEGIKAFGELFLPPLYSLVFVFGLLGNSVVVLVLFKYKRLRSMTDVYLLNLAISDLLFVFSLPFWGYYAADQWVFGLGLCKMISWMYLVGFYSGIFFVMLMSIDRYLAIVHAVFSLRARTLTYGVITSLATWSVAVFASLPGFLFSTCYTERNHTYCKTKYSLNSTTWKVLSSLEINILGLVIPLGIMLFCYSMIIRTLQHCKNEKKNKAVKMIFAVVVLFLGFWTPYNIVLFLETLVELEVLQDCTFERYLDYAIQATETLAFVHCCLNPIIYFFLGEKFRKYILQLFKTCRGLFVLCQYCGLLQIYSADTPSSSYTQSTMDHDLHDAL
Nature of the test: [35S]-GTPγS SPA binding assay for CCR4 antagonist activity. The format is biochemical. To be noted: CCR4 expressing CHO membranes; human MDC at EC80; [35S]-GTPγS competition. The method, then:
[35S]-GTPγS SPA Binding Assays for CCR4 Antagonist Activity
Antagonist potency was determined by a radioligand [35S]-GTPγS competition assay. Briefly, CCR4 expressing CHO membranes were homogenised by passing through a 23G needle. These membranes were then adhered to WGA-coated Leadseeker SPA beads in assay buffer (20 mM HEPES, 10 mM MgCl2, 100 mM NaCl, 0.05% BSA, 40 ug/ml Saponin and pH adjusted to 7.4 using KOH 5M) to generate a 3 μg/well final assay concentration (FAC) membrane and 250 μg/well FAC bead, solution.
The bead/membrane/[35S]-GTPγS/Agonist suspension was dispensed into white Greiner polypropylene 384-well plates (45 μl/well), containing 0.5 μl of compound. […] Plates were then read on a Viewlux instrument and luminescence was then plotted as a percentage of the maximum inhibitional response elicited by an IC100 of a standard antagonist.
A general note: GTPγS is a poorly hydrolysed GTP analogue; its binding reports G protein activation.

Structures are written as SMILES. pIC50: −log10 of the molar value. Counter-ions that a name gives are not always drawn.

One may read the pIC50 as the negative decadic logarithm of the IC50, by convention in mol/L.

For the molecule `COc1cccc2c1c(NS(=O)(=O)c1ccc(Cl)s1)nn2Cc1cccc(CNC(=O)[C@H](C)N)c1` [Example 18, N^1-[(3-{[3-{[(5-chloro-2-thienyl)sulfonyl]amino}-4-(methyloxy)-1H-indazol-1-yl]methyl}phenyl)methyl]-L-alaninamide trifluoroacetate], the Kb in the test with CD4+ CCR4+ T cells was ≤ 126 nM. On CCR4, this molecule showed a negative logarithm of the IC50 (pIC50) of 7.80 to 8.40.

For the molecule `COc1cccc2c1c(NS(=O)(=O)c1ccc(Cl)s1)nn2Cc1cccc(CNC(=O)[C@@H](N)Cc2cnc[nH]2)c1` [Example 44, N-[(3-{[3-{[(5-Chloro-2-thienyl)sulfonyl]amino}-4-(methyloxy)-1H-indazol-1-yl]methyl}phenyl)methyl]-L-histidinamide], in the test on CD4+ CCR4+ T cells, the Kb was ≤ 126 nM. In addition, on CCR4, the negative logarithm of the IC50 (pIC50) was 7.80 to 8.40.

`COc1cccc2c1c(NS(=O)(=O)c1ccc(Cl)s1)nn2Cc1cccc(CNC(=O)C(C)CN)c1` (stereo not drawn) [Example 26, 3-Amino-N-[(3-{[3-{[(5-chloro-2-thienyl)sulfonyl]amino}-4-(methyloxy)-1H-indazol-1-yl]methyl}phenyl)methyl]-2-methylpropanamide trifluoroacetate]: the Kb with CD4+ CCR4+ T cells was ≤ 126 nM. The same molecule had a pIC50 on CCR4 of 7.80 to 8.40.

Consider `CC(=O)NCc1cccc(Cn2nc(NS(=O)(=O)c3ccc(Cl)s3)c3c(O)cccc32)c1` [Example 72, N-({3-[(3-{[(5-Chloro-2-thienyl)sulfonyl]amino}-4-hydroxy-1H-indazol-1-yl)methyl]phenyl}methyl)acetamide], for which the Kb with CD4+ CCR4+ T cells was ≤ 126 nM. At CCR4, this molecule gave a negative-log IC50 (pIC50) of 7.80 to 8.40.

As to `NC(=O)c1cccc(Cn2nc(NS(=O)(=O)c3ccc(Cl)s3)c3c(O)cccc32)c1` [Example 70, 3-[(3-{[(5-Chloro-2-thienyl)sulfonyl]amino}-4-hydroxy-1H-indazol-1-yl)methyl]benzamide], the Kb with CD4+ CCR4+ T cells is ≤ 126 nM. This molecule also had a negative logarithm of the IC50 (pIC50) at CCR4 of 7.80 to 8.40.

For `COc1cccc2c1c(NS(=O)(=O)c1ccc(Cl)s1)nn2Cc1cccc(CNC(=O)[C@@H]2CCCCN2)c1` [Example 51, (2S)—N-[(3-{[3-{[(5-Chloro-2-thienyl)sulfonyl]amino}-4-(methyloxy)-1H-indazol-1-yl]methyl}phenyl)methyl]-2-piperidinecarboxamide trifluoroacetate], the Kb in the test with CD4+ CCR4+ T cells is ≤ 126 nM. The same molecule showed a pIC50 on CCR4 of 7.80 to 8.40.

Consider `CN[C@@H](C)C(=O)NCc1cccc(Cn2nc(NS(=O)(=O)c3ccc(Cl)s3)c3c(OC)cccc32)c1` [Example 17, N^1-[(3-{[3-{[(5-chloro-2-thienyl)sulfonyl]amino}-4-(methyloxy)-1H-indazol-1-yl]methyl}phenyl)methyl]-N^2-methyl-L-alaninamide trifluoroacetate], for which, in the test on CD4+ CCR4+ T cells, the Kb was ≤ 126 nM. Further, at CCR4, the pIC50 was 7.80 to 8.40.

Regarding `COc1cccc2c1c(NS(=O)(=O)c1ccc(Cl)s1)nn2Cc1cccc(CNC(=O)[C@]2(C)CCCN2)c1` [Example 27, N-[(3-{[3-{[(5-chloro-2-thienyl)sulfonyl]amino}-4-(methyloxy)-1H-indazol-1-yl]methyl}phenyl)methyl]-2-methyl-L-prolinamide trifluoroacetate], the Kb in the test on CD4+ CCR4+ T cells is ≤ 126 nM. The same molecule gave a pIC50 at CCR4 of 7.80 to 8.40.

In the case of `COc1cccc2c1c(NS(=O)(=O)c1ccc(Cl)s1)nn2Cc1cccc(CNC(=O)C(C)(C)O)c1` [Example 57, N-[(3-{[3-{[(5-Chloro-2-thienyl)sulfonyl]amino}-4-(methyloxy)-1H-indazol-1-yl]methyl}phenyl)methyl]-2-hydroxy-2-methylpropanamide], the Kb with CD4+ CCR4+ T cells was ≤ 126 nM. Further, the pIC50 at CCR4 was 7.80 to 8.40.

Turning to `COc1cccc2c1c(NS(=O)(=O)c1ccc(Cl)s1)nn2Cc1cccc(CNC(=O)C(C)(C)C)c1` [Example 4, N-[(3-{[3-{[(5-chloro-2-thienyl)sulfonyl]amino}-4-(methyloxy)-1H-indazol-1-yl]methyl}phenyl)methyl]-2,2-dimethylpropanamide], in the test with CD4+ CCR4+ T cells, the Kb was ≤ 126 nM. In addition, the pIC50 on CCR4 was 7.80 to 8.40.

Consider `CN[C@H](C)C(=O)NCc1cccc(Cn2nc(NS(=O)(=O)c3ccc(Cl)s3)c3c(O)cccc32)c1` [Example 71, N^1-({3-[(3-{[(5-Chloro-2-thienyl)sulfonyl]amino}-4-hydroxy-1H-indazol-1-yl)methyl]phenyl}methyl)-N^2-methyl-D-alaninamide formic acid salt], for which, in the test on CD4+ CCR4+ T cells, the Kb is ≤ 126 nM. For the same molecule, the pIC50 on CCR4 was 7.80 to 8.40.

In the case of `CCC(=O)NCc1cccc(Cn2nc(NS(=O)(=O)c3ccc(Cl)s3)c3c(OC)cccc32)c1` [Example 2, N-[(3-{[3-{[(5-chloro-2-thienyl)sulfonyl]amino}-4-(methyloxy)-1H-indazol-1-yl]methyl}phenyl)methyl]propanamide], in the test with CD4+ CCR4+ T cells, the Kb was ≤ 126 nM. Moreover, at CCR4, the pIC50 is 7.80 to 8.40.

On to `COc1cccc2c1c(NS(=O)(=O)c1ccc(Cl)s1)nn2Cc1cccc(CNC(=O)C2CCOC2)c1` (stereo not drawn) [Example 35, N-[(3-{[3-{[(5-Chloro-2-thienyl)sulfonyl]amino}-4-(methyloxy)-1H-indazol-1-yl]methyl}phenyl)methyl]tetrahydro-3-furancarboxamide], for which the Kb in the test on CD4+ CCR4+ T cells is ≤ 126 nM. Moreover, on CCR4, the negative logarithm of the IC50 (pIC50) is 7.80 to 8.40.

As to `COc1cccc2c1c(NS(=O)(=O)c1ccc(Cl)s1)nn2Cc1cccc(CNC(=O)c2cn[nH]c2)c1` [Example 33, N-[(3-{[3-{[(5-Chloro-2-thienyl)sulfonyl]amino}-4-(methyloxy)-1H-indazol-1-yl]methyl}phenyl)methyl]-1H-pyrazole-4-carboxamide], the Kb in the test on CD4+ CCR4+ T cells is ≤ 126 nM. Also, the pIC50 on CCR4 was 7.80 to 8.40.

Consider `COc1cccc2c1c(NS(=O)(=O)c1ccc(Cl)s1)nn2Cc1cccc(CNC(=O)[C@@H]2C[C@@H](F)CN2)c1` [Example 52, (4R)—N-[(3-{[3-{[(5-Chloro-2-thienyl)sulfonyl]amino}-4-(methyloxy)-1H-indazol-1-yl]methyl}phenyl)methyl]-4-fluoro-L-prolinamide trifluoroacetate], for which the Kb with CD4+ CCR4+ T cells is ≤ 126 nM. The same molecule gave a negative logarithm of the IC50 (pIC50) at CCR4 of 7.80 to 8.40.

In the case of `COc1cccc2c1c(NS(=O)(=O)c1ccc(Cl)s1)nn2Cc1cccc(CNC(=O)[C@H]2COCCN2)c1` [Example 7, (3R)—N-[(3-{[3-{[(5-Chloro-2-thienyl)sulfonyl]amino}-4-(methyloxy)-1H-indazol-1-yl]methyl}phenyl)methyl]-3-morpholinecarboxamide hydrochloride], the Kb with CD4+ CCR4+ T cells is ≤ 126 nM. The negative-log IC50 (pIC50) at CCR4 is 7.80 to 8.40.

For `COc1cccc2c1c(NS(=O)(=O)c1ccc(Cl)s1)nn2Cc1cccc(CNC(=O)C2CCOCC2)c1` [Example 43, N-[(3-{[3-{[(5-chloro-2-thienyl)sulfonyl]amino}-4-(methyloxy)-1H-indazol-1-yl]methyl}phenyl)methyl]tetrahydro-2H-pyran-4-carboxamide], the Kb in the test with CD4+ CCR4+ T cells was ≤ 126 nM. Further, the pIC50 at CCR4 was 7.80 to 8.40.

As to `COc1cccc2c1c(NS(=O)(=O)c1ccc(Cl)s1)nn2Cc1cccc(CNC(=O)[C@@H]2C[C@H](F)CN2)c1` [Example 28, (4S)—N-[(3-{[3-{[(5-chloro-2-thienyl)sulfonyl]amino}-4-(methyloxy)-1H-indazol-1-yl]methyl}phenyl)methyl]-4-fluoro-L-prolinamide trifluoroacetate], the Kb with CD4+ CCR4+ T cells is ≤ 126 nM. On CCR4, this molecule gave a pIC50 of 7.80 to 8.40.

Take `COc1cccc2c1c(NS(=O)(=O)c1ccc(Cl)s1)nn2Cc1cccc(CNC(=O)C(C)O)c1` (stereo not drawn) [Example 37, N-[(3-{[3-{[(5-Chloro-2-thienyl)sulfonyl]amino}-4-(methyloxy)-1H-indazol-1-yl]methyl}phenyl)methyl]-2-hydroxypropanamide]: the Kb in the test on CD4+ CCR4+ T cells is ≤ 126 nM. This molecule showed a pIC50 at CCR4 of 7.80 to 8.40.

For `COc1cccc2c1c(NS(=O)(=O)c1ccc(Cl)s1)nn2Cc1cccc(CNC(=O)C2CNCCN2)c1` (stereo not drawn) [Example 16, N-[(3-{[3-{[(5-chloro-2-thienyl)sulfonyl]amino}-4-(methyloxy)-1H-indazol-1-yl]methyl}phenyl)methyl]-2-piperazinecarboxamide hydrochloride], the Kb in the test with CD4+ CCR4+ T cells was ≤ 126 nM. Also, the pIC50 on CCR4 was 7.80 to 8.40.

Regarding `COc1cccc2c1c(NS(=O)(=O)c1ccc(Cl)s1)nn2Cc1cccc(CNC(=O)[C@@H]2COCCN2)c1` [Example 8, (3S)—N-[(3-{[3-{[(5-Chloro-2-thienyl)sulfonyl]amino}-4-(methyloxy)-1H-indazol-1-yl]methyl}phenyl)methyl]-3-morpholinecarboxamide hydrochloride], in the test on CD4+ CCR4+ T cells, the Kb is ≤ 126 nM. At CCR4, this molecule showed a pIC50 of 7.80 to 8.40.

The values above are taken from patent publication US8304446B2, “Compounds” (Glaxo Group Limited, priority 2009, dated 2012).
